Article PMC6026847, “Synthesis and Evaluation of the First Fluorescent Antagonists of the Human P2Y2 Receptor Based on AR-C118925” (Journal of Medicinal Chemistry, 2018)
Read-outs that look alike come from different tables or passages of the source. Blank lines part the entries; values can stand above or below the compound they belong to.

Columns and labels:
hP2Y2 [1] = test system: hP2Y2; set-up: method as in PMID 8564228; settings: endogenous agonists; cited from earlier work
[2] = test system: human bronchial epithelial cells; set-up: method as in PMID 15231488; settings: ex vivo; cited from earlier work
[3] = test system: panel of 37 other receptors; set-up: method as in PMID 15231488; settings: 10 μM; cited from earlier work
hP2Y2 [4] = test system: hP2Y2; set-up: method as in PMID 28958619; settings: cited from earlier work
hP2Y2R [5] = target: T1, hP2Y2R (Homo sapiens, UniProt P41231); experiment: Calcium-mobilization assay in P2Y2-1321N1 cells (antagonism of UTPγS); assay type: cell-based
T1 construct: The 1321N1 cells expressing wild-type P2Y2R (P2Y2R-1321N1) were gifted by Dr. Elizabeth Rosethorne; expressed in transfected cells; host or cells: 1321N1 astrocytoma cells (P2Y2R-1321N1), gifted
T1 sequence (P41231 whole entry): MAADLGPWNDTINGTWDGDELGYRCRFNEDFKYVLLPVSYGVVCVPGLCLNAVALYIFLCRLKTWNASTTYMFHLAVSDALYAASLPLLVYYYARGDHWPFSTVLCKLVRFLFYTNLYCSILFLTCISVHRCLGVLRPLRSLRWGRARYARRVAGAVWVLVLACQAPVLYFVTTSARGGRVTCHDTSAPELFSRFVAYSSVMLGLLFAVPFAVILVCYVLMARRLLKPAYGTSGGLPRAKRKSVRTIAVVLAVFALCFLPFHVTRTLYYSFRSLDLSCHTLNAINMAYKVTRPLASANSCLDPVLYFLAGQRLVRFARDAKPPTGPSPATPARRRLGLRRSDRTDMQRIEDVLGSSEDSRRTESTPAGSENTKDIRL

NLuc-P2Y2R [6] = target: T2, NLuc-P2Y2R (Homo sapiens, UniProt P41231); experiment: NanoBRET competition binding in NLuc-P2Y2 1321N1 cells; settings: Table 7, competition binding with fluorescent ligand 98, mean ± SEM
T2 construct: expressed in transfected cells
T2 sequence (P41231 2-377 limits assumed): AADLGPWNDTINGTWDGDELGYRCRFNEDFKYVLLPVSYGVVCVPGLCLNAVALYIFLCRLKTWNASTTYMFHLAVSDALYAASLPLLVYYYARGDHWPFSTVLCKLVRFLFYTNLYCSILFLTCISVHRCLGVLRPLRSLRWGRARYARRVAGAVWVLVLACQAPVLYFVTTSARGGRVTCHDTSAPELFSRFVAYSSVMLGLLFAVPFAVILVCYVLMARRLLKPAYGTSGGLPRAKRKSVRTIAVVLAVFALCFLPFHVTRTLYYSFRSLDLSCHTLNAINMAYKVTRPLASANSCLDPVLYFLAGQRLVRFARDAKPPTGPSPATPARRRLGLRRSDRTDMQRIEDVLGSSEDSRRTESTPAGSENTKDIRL

NLuc-P2Y2R [7] = target: T2, NLuc-P2Y2R; experiment: NanoBRET saturation binding in NLuc-P2Y2R 1321N1 astrocytoma cells
Protocol: To determine whether any of these conjugates had affinities for P2Y2R and consequently if they could be used in NanoBRET binding assays, a 1321N1 astrocytoma cell line expressing recombinant P2Y2R tagged on its N-terminus with NLuc (NLuc-P2Y2R) was generated. […] These NLuc-P2Y2 cells were treated with increasing concentrations of 66–69 and then treated with the NLuc substrate, furimazine, before the resulting BRET signal was monitored. […] However, this did illustrate the power of using NanoBRET to monitor ligand binding to low-affinity receptors.
Nucleophilic displacement of the 2-chloro substituent of 43 by either tert-butyl 3-aminopropanoate or tert-butyl 6-aminohexanoate gave the corresponding tert-butyl esters (70 and 71). […] The carboxylic acids were generated from the tert-butyl esters via TFA-mediated hydrolysis and subsequently coupled with tert-butyl (2-aminoethyl)carbamate or tert-butyl (2-(2-aminoethoxy)ethyl)carbamate to generate the corresponding amides (74–77). The Boc protecting groups were removed using TFA, and the resulting amines were coupled with the appropriate commercially available BODIPY succinimidyl ester (SE), generating a small library of 14 fluorescent conjugates (78–91). These fluorescent conjugates were initially tested using the aforementioned NanoBRET binding assay at fixed concentrations of 10 μM in the presence or absence of 10 μM 1 (see Figure S1 in the Supporting Information).
The saturation and competition binding assays were performed according to the methodology of Stoddart.[18] Briefly, the assays were performed on stably transfected NLucP2Y2-1321N1 cells that had been seeded 24 h prior to the experiment in white Thermo Scientific Matrix 96-well microplates. The medium in each well was removed and replaced with HBSS containing apyrase (1 U/mL) and the required concentration of the fluorescent ligand with or without the competing ligand. Upon the addition of the fluorescent ligand, the cells were incubated for 1 h at 37 °C without CO2. The NLuc substrate, furimazine (Promega), was then added to a final concentration of 10 μM, and the plate was incubated for a further 5 min at 37 °C without CO2. The luminescence and resulting BRET were measured using a PHERAstar FS plate reader (BMG Labtech) at room temperature. For the assays involving 97, sequential measurements of the filtered light emissions were made at 460 nm (80 nm bandpass) and >610 nm (long-pass), and the raw BRET ratios were calculated by dividing the >610 nm emissions by the 460 nm emissions. For the assays involving 98, the measurements were made at 475 nm (30 nm bandpass) and 535 nm (30 nm bandpass), and the raw BRET ratios were calculated by dividing the 535 nm emissions by the 475 nm emissions.
The total and nonspecific saturation binding curves were fitted simultaneously using eq 2: [drawing 7] 2 where Bmax is the maximum specific BRET signal, [b] is the nanomolar concentration of the fluorescent ligand, Kd is the equilibrium dissociation constant in nanomolar, M is the slope of the nonspecific-binding component, and C is the intercept with the Y-axis. The pKd is −logKd.

hP2Y2R [8] = target: T1, hP2Y2R; experiment: Confocal microscopy of fluorescent ligands on 1321N1 astrocytoma cells expressing hP2Y2R; assay type: cell-based; settings: for membrane-specific fluorescence after pretreatment with 1: 100 nM fluorescent ligand plus 10 μM 1, 30 min at 37 °C; for confocal imaging: fluorescence localisation: 100 nM fluorescent ligand, 1321N1 astrocytoma cells expressing hP2Y2R
Protocol: The P2Y2R-1321N1 cells were grown to approximately 80% confluency on eight-well Labtek chambered cover glasses (Nunc Nalgene) in normal growth medium. The growth medium was removed and replaced with HBSS containing apyrase (1 U/mL) and either 1 (10 μM) or the vehicle, and the cells incubated for 30 min at 37 °C without CO2. The cells were then incubated with 97 or 98 at the required concentration for 10 min at room temperature prior to the collection of the single-equatorial confocal images. The images were obtained on a Zeiss LSM710 confocal microscope using a 40× c-Apochromat 1.2NA water-immersion objective. For 97, the images were collected using a 633 nm excitation wavelength and a 488/561/633 dichroic, and the emissions were collected through a 650LP filter. For 98, a 488 nm excitation wavelength was used with the same dichroic, and the emissions were collected using an LP575 filter. In each case, a pinhole diameter of 1 airy unit was used, and the laser power, gain, and offset were kept the same for all of the samples within each experiment. For both 97 and 98, the images presented are as representative of an individual experiment with matched conditions. Linear adjustments to the image brightness and contrast have been applied equally across all of the comparative images using Zen software in order to prepare the images for presentation.

NLuc-P2Y2R [9] = target: T2, NLuc-P2Y2R; experiment: Calcium signal of NLuc-tagged P2Y2 receptors in 1321N1 cells; assay type: cell-based; settings: n = 3, read-out: UTPγS EC50 (calcium signal)
Protocol: To create the NLuc-P2Y2R constructs, human P2Y2R DNA (obtained from the Missouri S&T cDNA Resource Center) was amplified by PCR to remove the methionine start signal and cloned into pCR2.1 (linearized vector, Invitrogen). P2Y2R was then subcloned in-frame with the membrane-signal sequence of the 5HT3A receptor and the full-length sequence of nanoluciferase.
P2Y2-1321N1 cells seeded into black-sided 96-well view plates were incubated at 37 °C without CO2 for 45 min in a total volume of 100 μL of a HEPES-buffered saline solution (HBSS; 10 mM HEPES, 10 mM glucose, 145 mM NaCl, 5 mM KCl, 1 mM MgSO4, 2 mM sodium pyruvate, and 1.3 mM CaCl2) containing 2.5 mM probenecid, 2.3 μM Fluo 4AM, 0.023% pluronic acid, 0.5 mM Brilliant Black, 1 U/mL apyrase, and the ligand under investigation or the vehicle. The plates were then loaded onto a plate reader (FLEXstation, Molecular Devices), and the fluorescence was measured (excitation: 485 nm, emission: 525 nm) every 1.52 s for up to 200 s after the addition of UTPγS at 15 s. For the investigation of the BODIPYFL-labeled ligands, Fluo 4AM was replaced with 2.0 μM X-Rhod-1 AM (excitation: 584 nm, emission: 612 nm).

[10] = Table 7, Gaddum equation, shift of agonist dose–response curve by a single antagonist concentration, mean ± SEM, read-out: pKb Ca2+ mobilization (converted)
[11] = 10 μM fluorescent ligand, rightward shift of agonist dose–response curve, hP2Y2R-1321N1 cells, read-out: pKb (converted)

Compound: Nc1ncnc2c1ncn2[C@@H]1O[C@H](COP(=O)(O)OP(=O)(O)OP(=O)(O)O)[C@@H](O)[C@H]1O [ATP, adenosine-5′-triphosphate]
EC50 (hP2Y2 [1]): 230 nM

Compound: Cc1ccc2c(c1)C=Cc1cc(C)ccc1C2c1cn(Cc2ccc(C(=O)Nc3nnn[nH]3)o2)c(=O)[nH]c1=S [Example 1]
antagonism of ATPγS-induced mucin secretion [2]: concentration-dependently antagonize
activity against a panel of 37 other receptors [3]: inactive

Compound: O=c1[nH]c(=S)c(C2c3ccccc3CCc3ccccc32)cn1[C@@H]1O[C@H](COP(=O)([O-])OP(=O)([O-])C(Cl)(Cl)P(=O)([O-])[O-])[C@@H](O)[C@H]1O.[Na+].[Na+].[Na+].[Na+] [Example 99, reference compound]
pA2 (literature/reported value) (hP2Y2 [4]): d Reported pA2 = 8.0.[8]
Kb (hP2Y2R [5]; [10]): 257 nM

Compound: O=c1ccn([C@@H]2O[C@H](COP(=O)(O)OP(=O)(O)OP(=O)(O)O)[C@@H](O)[C@H]2O)c(=O)[nH]1 [UTP, uridine-5′-triphosphate]
EC50 (hP2Y2 [1]): 140 nM

Compound: O=c1ccn([C@@H]2O[C@H](COP(=O)(O)OP(=O)(O)OP(O)(O)=S)[C@@H](O)[C@H]2O)c(=O)[nH]1 [UTPγS, uridine-5′-(γ-thio)-triphosphate, reference compound]
EC50 (hP2Y2R [5]; agonist, calcium mobilization, n = 25): 7.9 nM
EC50 (NLuc-P2Y2R [9]): 91 ± 12 nM
pKi NanoBRET (98) (NLuc-P2Y2R [6]): 5.46 ± 0.04 (6)

Further lines, with some results ahead:

Kb (hP2Y2R [5]; Table 1, Gaddum equation, shift of UTPγS concentration–response curve by a single antagonist concentration, mean ± SEM, read-out: hP2Y2 pKb (converted)): 372 nM
Compound: Cc1ccc2c(c1)C=Cc1cc(C)ccc1C2c1cn(Cc2nc(C(=O)O)cs2)c(=O)[nH]c1=S [Example 2, 2-((5-(2,8-dimethyl-5H-dibenzo[a,d][7]annulen-5-yl)-2-oxo-4-thioxo-3,4-dihydropyrimidin-1(2H)-yl)methyl)thiazole-4-carboxylic acid]
pA2 (literature/reported value) (hP2Y2 [4]): c The literature value is pA2 = 5.7.[8]

Kb (hP2Y2R [5]; [10]): 295 nM
Kd (hP2Y2R [5]; quoted in text for nonfluorescent antagonists, mean ± SEM, read-out: hP2Y2R affinity pKd (converted)): 295 nM
Ki (NLuc-P2Y2R [6]; read-out: pKi NanoBRET (98) (converted)): 145 nM
Compound: Cc1ccc2c(c1)C=Cc1cc(C)ccc1C2c1cn(Cc2cc(C(=O)O)cc(C(=O)O)c2)c(=O)[nH]c1=S [Example 60, 5-((5-(2,8-Dimethyl-5H-dibenzo[a,d][7]annulen-5-yl)-2-oxo-4-thioxo-3,4-dihydropyrimidin-1(2H)-yl)methyl)isophthalic Acid]

specific NanoBRET signal (NLuc-P2Y2R [7]; fixed 10 μM fluorescent conjugate in presence or absence of 10 μM 1, among 78–91 (Figure S1)): largest specific NanoBRET signals
Kb (hP2Y2R [5]; [10]): 501 nM
Compound: Cc1cc(C)n2c1C=C1C=CC(CCC(=O)NCCCCCC(=O)NCCNC(=O)CCNc3nc4c(s3)C=Cc3cc(Cl)ccc3C4c3cn(C)c(=O)[nH]c3=S)=[N+]1[B-]2(F)F (centres unmarked) [Example 86, N-(2-(3-((7-Chloro-4-(1-methyl-2-oxo-4-thioxo-1,2,3,4-tetrahydropyrimidin-5-yl)-4H-benzo[5,6]cyclohepta[1,2-d]thiazol-2-yl)amino)propanamido)ethyl)-6-(3-(5,5-difluoro-7,9-dimethyl-5H-4λ^4,5λ^4-dipyrrolo[1,2-c:2′,1′-f][1,3,2]diazaborinin-3-yl)propanamido)hexanamide]

Kb (hP2Y2R [5]; [11]): 2040 nM
membrane-specific fluorescence after pretreatment with 1 (hP2Y2R [8]): substantially reduced
Compound: O=C(CCCCCNC(=O)COc1ccc(/C=C/C2=[N+]3C(=Cc4ccc(-c5cccs5)n4[B-]3(F)F)C=C2)cc1)NCCNC(=O)CCNc1nc2c(s1)C=Cc1cc(Cl)ccc1C2c1cn(Cc2nc(C(=O)Nc3nnn[nH]3)cs2)c(=O)[nH]c1=S (centres unmarked) [Example 97, (E)-2-((5-(7-Chloro-2-((3-((2-(6-(2-(4-(2-(5,5-difluoro-7-(thiophen-2-yl)-5H-4λ^4,5λ^4-dipyrrolo[1,2-c:2′,1′-f][1,3,2]diazaborinin-3-yl)vinyl)phenoxy)acetamido)hexanamido)ethyl)amino)-3-oxopropyl)amino)-4H-benzo[5,6]cyclohepta[1,2-d]thiazol-4-yl)-2-oxo-4-thioxo-3,4-dihydropyrimidin-1(2H)-yl)methyl)-N-(1H-tetrazol-5-yl)thiazole-4-carboxamide]
confocal imaging: fluorescence localisation (hP2Y2R [8]): localized membrane fluorescence and very little intracellular fluorescence

Kd (NLuc-P2Y2R [7]; Table 6, saturation binding curves, 1321N1 cells expressing NLuc-P2Y2R, mean ± SEM, read-out: NanoBRET pKd (converted)): 479 nM
Kb (hP2Y2R [5]; [11]): 1350 nM
membrane-specific fluorescence after pretreatment with 1 (hP2Y2R [8]): substantially reduced
Compound: CC1=CC(C)=[N+]2C1=Cc1ccc(CCC(=O)NCCCCCC(=O)NCCNC(=O)CCNc3nc4c(s3)C=Cc3cc(Cl)ccc3C4c3cn(Cc4nc(C(=O)Nc5nnn[nH]5)cs4)c(=O)[nH]c3=S)n1[B-]2(F)F (centres unmarked) [Example 98, (E)-2-((5-(7-Chloro-2-((3-((2-(6-(3-(5,5-difluoro-7,9-dimethyl-5H-5λ^4,6λ^4-dipyrrolo[1,2-c:2′,1′-f][1,3,2]diazaborinin-3-yl)propanamido)hexanamido)ethyl)amino)-3-oxopropyl)amino)-4H-benzo[5,6]cyclohepta[1,2-d]thiazol-4-yl)-2-oxo-4-thioxo-3,4-dihydropyrimidin-1(2H)-yl)methyl)-N-(1H-tetrazol-5-yl)thiazole-4-carboxamide]
confocal imaging: fluorescence localisation (hP2Y2R [8]): localized membrane fluorescence and very little intracellular fluorescence
